From ChEMBL document CHEMBL1201862, “PubChem BioAssay data set” (2004)
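Grown in 96-well plates, cells were treated for 48 hours with each compound at five concentrations. Insufficient inhibition: endpoint recorded as highest concentration tested. The concentration for 50% growth inhibition is given as GI50.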 Active and inactive are the calls of the source. Rule as the data show it: active = GI50 up to about 1.1 µM and inactive = higher.

How the values were obtained:
Test in all cases: NCI-60 cell line screen, 48 h
786-0 = system: 786-0
A498 = system: A498
A549 = system: A549
ACHN = system: ACHN
BT-549 = system: BT-549
CCRF-CEM = system: CCRF-CEM
COLO 205 = system: COLO 205
DU-145 = system: DU-145
EKVX = system: EKVX
HCC 2998 = system: HCC 2998
HCT-116 = system: HCT-116
HCT-15 = system: HCT-15
HOP-62 = system: HOP-62
HOP-92 = system: HOP-92
HT-29 = system: HT-29
Hs-578T = system: Hs-578T
IGROV-1 = system: IGROV-1
KM12 = system: KM12
LOX IMVI = system: LOX IMVI
M14 = system: M14
MCF7 = system: MCF7
MDA-MB-231 = system: MDA-MB-231
MDA-MB-435 = system: MDA-MB-435
MDA-N = system: MDA-N
MOLT-4 = system: MOLT-4
Malme-3M = system: Malme-3M
NCI-H226 = system: NCI-H226
NCI-H23 = system: NCI-H23
NCI-H460 = system: NCI-H460
NCI/ADR-RES = system: NCI/ADR-RES
OVCAR-3 = system: OVCAR-3
OVCAR-4 = system: OVCAR-4
OVCAR-5 = system: OVCAR-5
OVCAR-8 = system: OVCAR-8
PC-3 = system: PC-3
RPMI-8226 = system: RPMI-8226
RXF 393 = system: RXF 393
SF-268 = system: SF-268
SF-295 = system: SF-295
SF-539 = system: SF-539
SK-MEL-28 = system: SK-MEL-28
SK-MEL-2 = system: SK-MEL-2
SK-MEL-5 = system: SK-MEL-5
SK-OV-3 = system: SK-OV-3
SN12C = system: SN12C
SNB-19 = system: SNB-19
SNB-75 = system: SNB-75
SR = system: SR
T47D = system: T47D
TK-10 = system: TK-10
U-251 = system: U-251
UACC-257 = system: UACC-257
UACC-62 = system: UACC-62
UO-31 = system: UO-31
CAKI-1 = system: CAKI-1
HL-60 = system: HL-60
K562 = system: K562
NCI-H522 = system: NCI-H522

## COc1ccc(-n2nnc3c(C#N)c(C)c(-c4ccccc4)n3c2=O)cc1
786-0
  GI50: 1.94 µM (inactive)
A498
  GI50: 3.45 µM (inactive)
A549
  GI50: 2.9 µM (inactive)
ACHN
  GI50: 7.38 µM (inactive)
BT-549
  GI50: 5.92 µM (inactive)
CCRF-CEM
  GI50: 0.38 µM (active)
COLO 205
  GI50: 2.93 µM (inactive)
DU-145
  GI50: 1.62 µM (inactive)
EKVX
  GI50: 2.84 µM (inactive)
HCC 2998
  GI50: 3.56 µM (inactive)
HCT-116
  GI50: 0.501 µM (active)
HCT-15
  GI50: 4.72 µM
HOP-62
  GI50: 4.04 µM (inactive)
HOP-92
  GI50: > 92.7 µM (inactive)
HT-29
  GI50: 4.42 µM (inactive)
Hs-578T
  GI50: 4.58 µM (inactive)
IGROV-1
  GI50: 2.22 µM (inactive)
KM12
  GI50: 2.71 µM (inactive)
LOX IMVI
  GI50: 3.31 µM (inactive)
M14
  GI50: 1.4 µM (inactive)
MCF7
  GI50: 3.8 µM (inactive)
MDA-MB-231
  GI50: 10.3 µM (inactive)
MDA-MB-435
  GI50: 0.543 µM (active)
MDA-N
  GI50: 0.413 µM (active)
MOLT-4
  GI50: 0.455 µM (active)
Malme-3M
  GI50: 3.95 µM (inactive)
NCI-H226
  GI50: 2.3 µM (inactive)
NCI-H23
  GI50: 3.34 µM (inactive)
NCI-H460
  GI50: 3.65 µM (inactive)
NCI/ADR-RES
  GI50: 2.84 µM (inactive)
OVCAR-3
  GI50: 1.16 µM (inactive)
OVCAR-4
  GI50: > 75.2 µM (inactive)
OVCAR-5
  GI50: 3.33 µM (inactive)
OVCAR-8
  GI50: 4.92 µM (inactive)
PC-3
  GI50: 1.82 µM (inactive)
RPMI-8226
  GI50: 1.99 µM (inactive)
RXF 393
  GI50: 2.2 µM (inactive)
SF-268
  GI50: 5.19 µM (inactive)
SF-295
  GI50: 2.24 µM (inactive)
SF-539
  GI50: 2.04 µM (inactive)
SK-MEL-28
  GI50: 2.4 µM (inactive)
SK-MEL-2
  GI50: 3.56 µM (inactive)
SK-MEL-5
  GI50: 2.81 µM (inactive)
SK-OV-3
  GI50: 2.29 µM (inactive)
SN12C
  GI50: 4.34 µM (inactive)
SNB-19
  GI50: 3.35 µM (inactive)
SNB-75
  GI50: 3.2 µM (inactive)
SR
  GI50: 1.96 µM (inactive)
T47D
  GI50: 1.76 µM (inactive)
TK-10
  GI50: > 43.2 µM (inactive)
U-251
  GI50: 11.3 µM (inactive)
UACC-257
  GI50: > 47.4 µM (inactive)
UACC-62
  GI50: 4.41 µM (inactive)
UO-31
  GI50: 4.33 µM (inactive)

## N#CC(/N=N/c1ccc(Cl)cc1)c1nc2ccccc2o1 (centres undefined)
786-0
  GI50: 62.2 µM (inactive)
A498
  GI50: 49 µM (inactive)
A549
  GI50: > 100 µM (inactive)
ACHN
  GI50: 32.9 µM (inactive)
BT-549
  GI50: 32.6 µM (inactive)
CAKI-1
  GI50: > 100 µM (inactive)
CCRF-CEM
  GI50: 21.1 µM (inactive)
COLO 205
  GI50: 22.3 µM (inactive)
DU-145
  GI50: > 100 µM (inactive)
EKVX
  GI50: 34.5 µM (inactive)
HCC 2998
  GI50: 33 µM (inactive)
HCT-116
  GI50: 56.4 µM (inactive)
HCT-15
  GI50: > 100 µM
HL-60
  GI50: 33.7 µM (inactive)
HOP-62
  GI50: 38.3 µM (inactive)
HOP-92
  GI50: 17.7 µM (inactive)
HT-29
  GI50: > 100 µM (inactive)
Hs-578T
  GI50: 42.7 µM (inactive)
K562
  GI50: 15.5 µM (inactive)
KM12
  GI50: 89.7 µM (inactive)
M14
  GI50: > 100 µM (inactive)
MCF7
  GI50: > 100 µM (inactive)
MDA-MB-231
  GI50: 37 µM (inactive)
MDA-MB-435
  GI50: > 100 µM (inactive)
MDA-N
  GI50: > 100 µM (inactive)
MOLT-4
  GI50: 20.5 µM (inactive)
Malme-3M
  GI50: 34.6 µM (inactive)
NCI-H226
  GI50: > 100 µM (inactive)
NCI-H23
  GI50: 25.6 µM (inactive)
NCI-H460
  GI50: > 100 µM (inactive)
NCI-H522
  GI50: 10.6 µM (inactive)
NCI/ADR-RES
  GI50: > 100 µM (inactive)
OVCAR-3
  GI50: 37.9 µM (inactive)
OVCAR-4
  GI50: 30.2 µM (inactive)
OVCAR-5
  GI50: > 100 µM (inactive)
OVCAR-8
  GI50: 88.1 µM (inactive)
PC-3
  GI50: 77.6 µM (inactive)
RPMI-8226
  GI50: 15.7 µM (inactive)
RXF 393
  GI50: 37.6 µM (inactive)
SF-268
  GI50: 33.3 µM (inactive)
SF-295
  GI50: 27.9 µM (inactive)
SF-539
  GI50: 24.6 µM (inactive)
SK-MEL-28
  GI50: > 100 µM (inactive)
SK-MEL-2
  GI50: 28.7 µM (inactive)
SK-MEL-5
  GI50: > 100 µM (inactive)
SK-OV-3
  GI50: 32.7 µM (inactive)
SN12C
  GI50: > 100 µM (inactive)
SNB-19
  GI50: 42.7 µM (inactive)
SR
  GI50: 43.7 µM (inactive)
T47D
  GI50: 7.71 µM (inactive)
TK-10
  GI50: 56.6 µM (inactive)
U-251
  GI50: 29.6 µM (inactive)
UACC-257
  GI50: > 100 µM (inactive)
UACC-62
  GI50: 20.6 µM (inactive)
UO-31
  GI50: > 100 µM (inactive)
